Results as given in patent publication US7906133B2, “Optimized dosing for drug coated stents” (Boston Scientific Scimed, Inc., priority 2002, dated 2011).

Legend:
[1] = biological response as a function of release rate from paclitaxel coated stent (FIGS. 2a-2c); format: in vivo; conditions: dose 1.0 micrograms/mm^2
Description: FIG. 2 and FIGS. 2a-2c illustrate the difference in biological response resulting from the difference in release rate from a paclitaxel coated stent.
(§1) Using the 1.0 micrograms/mm^2 dose as an exemplary embodiment, the effects of release rate were investigated. Metallic stents were coated with paclitaxel in a styrene-isobutylene based block copolymer carrier with the weight percent of paclitaxel in the carrier varying from approximately 8.8 to about 35%. The dose of drug applied to the stents was kept at 1.0 micrograms/mm^2, and the total drug dose was held constant by varying total coating weight.

[2] = in vitro release studies involving an aqueous environment (FIG. 2); format: physicochemical; conditions: dose 1.0 micrograms/mm^2
Description: as §1

healthy porcine arteries = conditions: dosing of approximately 1.0 micrograms/mm^2 in a polymer coating
Description: Paclitaxel coated metallic stents of various doses were implanted into healthy porcine arteries to determine the effect of dosage on biological response. Dosages used were approximately 4.0, 2.0, 1.0, and 0.6 micrograms per square millimeter of the stent surface area, corresponding to approximate total dosages of 345, 175, 85, and 50 micrograms per stent. The paclitaxel was contained within a styrene-isobutylene based block copolymer applied to the stent struts.

[3] = weight fraction less than about 35% in polymer carrier

Structure (SMILES): CC(=O)O[C@H]1C(=O)[C@@]2(C)[C@H]([C@H](OC(=O)c3ccccc3)[C@]3(O)C[C@H](OC(=O)[C@H](O)[C@@H](NC(=O)c4ccccc4)c4ccccc4)C(C)=C1C3(C)C)[C@]1(OC(C)=O)CO[C@@H]1C[C@@H]2O [paclitaxel]
- fibrin accumulation ([1]; fastest release rate (FIG. 2a)): noticeable fibrin accumulation
- fibrin accumulation ([1]; slower release rates (FIGS. 2b and 2c)): did not result in this effect
- paclitaxel released within two days ([2]; 8.8% weight fraction in styrene-isobutylene based block copolymer carrier): about 2 micrograms
- paclitaxel released within two days ([2]; 35% weight fraction in styrene-isobutylene based block copolymer carrier): approximately 45 micrograms
- release profile over time ([2]; all curves in FIG. 2 (weight fractions 8.8 to 35%)): relatively rapid release rate over the first few days, followed by a slower, sustained release over up to about two weeks
- paclitaxel released within ten days [2, 3]: less than 60 micrograms
- paclitaxel released within two days [2, 3]: less than 45 micrograms
- safety and efficacy (healthy porcine arteries): superior safety and efficacy
